According to article PMC8948984, “Diversified Chaetoglobosins from the Marine-Derived Fungus Emericellopsis sp. SCSIO41202” (Molecules, 2022):
Like-named read-outs stand apart in the source and are kept apart here.

Experiments:
[1] = target: acetylcholinesterase (AChE) (Homo sapiens, UniProt P22303); assay: biochemical
Experimental: The inhibitory effects of 4–13 on AChE were measured in vitro in 96-well plates as previously described.

[2] = tested on: PC-3 cells; assay: CCK-8 cytotoxicity assay, PC-3 cells; type: cell-based
Experimental: Compounds 4–13 were tested for their cytotoxicity against two prostatic carcinoma cell lines, PC-3 and 22Rv1, according to the reported CCK-8 (Dojindo) method. In brief, cells were seeded in a 96-well plate at the appropriate cell concentration and then incubated for 24 h at 37 °C in a 100% relative humidity, 5% CO2 incubator. Compounds to be tested were diluted to the appropriate concentration with culture medium, and the amount of each compound was adjusted to 25 μL before adding to the cells. Docetaxel (S1148, Selleck) was used as a positive control. The medium was aspirated, a fresh complete medium with 10% CCK-8 was added to incubate in a 37 °C incubator for 2-4 h, and the absorbance of the soultion at 450 nm was measured by an Envision 2104 multilabel reader (PerkinElmer). The inhibition rate was calculated by taking the absorbance at 650 nm as a reference.

[3] = in vitro, 96-well plates, read-out: AChE inhibitory activity IC50

acetylcholinesterase (AChE), sequence (P22303 32-614, species assumed): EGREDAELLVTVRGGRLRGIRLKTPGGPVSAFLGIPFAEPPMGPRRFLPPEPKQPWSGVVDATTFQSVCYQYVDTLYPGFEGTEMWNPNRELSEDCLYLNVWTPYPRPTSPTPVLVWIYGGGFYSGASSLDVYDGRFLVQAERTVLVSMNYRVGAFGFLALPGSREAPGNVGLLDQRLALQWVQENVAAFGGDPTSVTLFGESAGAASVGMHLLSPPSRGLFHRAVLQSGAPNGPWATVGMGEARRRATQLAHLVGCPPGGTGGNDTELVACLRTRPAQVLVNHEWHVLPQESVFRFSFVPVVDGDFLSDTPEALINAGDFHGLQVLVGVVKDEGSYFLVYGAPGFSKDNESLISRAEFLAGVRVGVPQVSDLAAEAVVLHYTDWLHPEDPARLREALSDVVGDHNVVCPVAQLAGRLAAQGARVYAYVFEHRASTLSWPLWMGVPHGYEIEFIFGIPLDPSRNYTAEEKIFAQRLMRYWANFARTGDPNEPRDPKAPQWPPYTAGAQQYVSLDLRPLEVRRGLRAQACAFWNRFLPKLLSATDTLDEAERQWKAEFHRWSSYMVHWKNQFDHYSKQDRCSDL

Row | SMILES | IC50 [1, 3] | IC50 [1] | other results
1 | CC1=C(O)C(=O)[C@@H]2CC(=O)[C@@]34C(=O)N[C@@H](Cc5c[nH]c6ccccc56)[C@@H]3C(C)=C(C)[C@@H](O)[C@@H]4/C=C/C[C@H](C)[C@@H]12 [Compound 9, chaetoglobosin Vb] | 23.7 µM |  | 
2 | CC1=C(C)[C@H]2[C@H](Cc3c[nH]c4ccccc34)NC(=O)[C@]23C(=O)CC[C@H](O)C(=O)/C(C)=C/[C@@H](C)C/C=C/[C@H]3[C@@H]1O [Compound 4, chaetoglobosin E] | 4.15 µM |  | 
3 | CC(=O)O[C@@]12CO[C@@H]1C[C@H](O)[C@@]1(C)C(=O)[C@H](O)C3=C(C)[C@@H](OC(=O)[C@H](O)[C@@H](NC(=O)OC(C)(C)C)c4ccccc4)C[C@@](O)([C@@H](OC(=O)c4ccccc4)[C@H]21)C3(C)C [docetaxel, reference compound] |  |  | IC50 ([2]; Homo sapiens, prostatic carcinoma cell line PC-3, CCK-8, triplicate, read-out: IC50 against PC-3 cells): 0.12 µM
4 | C=C1[C@@H](C)[C@H]2[C@H](Cc3c[nH]c4ccccc34)NC(=O)[C@]23C(=O)CC[C@H](O)C(=O)/C(C)=C/[C@@H](C)C/C=C/[C@H]3[C@@H]1O [Compound 5, chaetoglobosin Fex] |  | 31.7 µM | IC50 ([2]; Homo sapiens, PC-3, read-out: IC50 against PC-3 cells, prostatic carcinoma cell line PC-3, CCK-8, triplicate): 2.32 µM; IC50 ([2]; read-out: IC50 against PC-3 cells, prostatic carcinoma cell line PC-3, CCK-8, triplicate, listed as C5): 2.32 µM
5 | CC1=C(O)C(=O)[C@H]2CC(=O)[C@@]34C(=O)N[C@@H](Cc5c[nH]c6ccccc56)[C@@H]3C(C)=C(C)[C@@H](O)[C@@H]4/C=C/C[C@H](C)[C@H]12 [Compound 8, chaetoglobosin V] | 1.31 µM |  | 
6 | CC1=C(C)[C@H]2[C@H](Cc3c[nH]c4ccccc34)NC(=O)[C@]23C(=O)CCC(=O)C(=O)/C(C)=C/[C@@H](C)C/C=C/[C@H]3[C@@H]1O [Compound 6, chaetoglobosin G] |  | 8.71 µM | 
